# According to patent publication US9315490B2, “2,5-substituted pyrimidines” (Grünenthal GmbH, priority 2014, dated 2016):
# Experiments:
# [1] = molecular target: T1, human PDE4B1 (Homo sapiens, UniProt Q07343); assay: cAMP HTRF assay to determine the activity of hPDE4B1; assay type: biochemical; details: inhibition of PDE4B at a test concentration of 1 μM
# T1 construct: host or cells: Sf9 cells
# Procedure, shortened: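 […], using HTRF quantitation of residual cAMP after 1 mM IBMX stop and 60 min detection. Enzyme was Sf9-expressed human PDE4B1 incubated 30 min at room temperature with 40 nM final cAMP at pH 7.8.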
# [2] = molecular target: T1, human PDE4B1; assay: TR-FRET assay using the LANCE Ultra cAMP kit to determine the activity of hPDE4B1; assay type: biochemical; details: for inhibition at 1 µM / inhibition at 10 µM: read-out: Inhibition in % (inhibition of PDE4B); for inhibition at 10 µM: test concentration 10 μM (marked in cell)
# Procedure, shortened: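 Sf9-expressed recombinant human PDE4B1 (0.96 U) hydrolyses 500 nM cAMP for 30 minutes at room temperature in 50 mM Tris-HCl, 50 mM MgCl2, 5 mM DTT, pH 8.5. The reaction is stopped with IBMX, and residual cAMP is measured by TR-FRET (665/620 ratio). IC50 comes from ten concentrations.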
# T1 sequence (Q07343 whole entry): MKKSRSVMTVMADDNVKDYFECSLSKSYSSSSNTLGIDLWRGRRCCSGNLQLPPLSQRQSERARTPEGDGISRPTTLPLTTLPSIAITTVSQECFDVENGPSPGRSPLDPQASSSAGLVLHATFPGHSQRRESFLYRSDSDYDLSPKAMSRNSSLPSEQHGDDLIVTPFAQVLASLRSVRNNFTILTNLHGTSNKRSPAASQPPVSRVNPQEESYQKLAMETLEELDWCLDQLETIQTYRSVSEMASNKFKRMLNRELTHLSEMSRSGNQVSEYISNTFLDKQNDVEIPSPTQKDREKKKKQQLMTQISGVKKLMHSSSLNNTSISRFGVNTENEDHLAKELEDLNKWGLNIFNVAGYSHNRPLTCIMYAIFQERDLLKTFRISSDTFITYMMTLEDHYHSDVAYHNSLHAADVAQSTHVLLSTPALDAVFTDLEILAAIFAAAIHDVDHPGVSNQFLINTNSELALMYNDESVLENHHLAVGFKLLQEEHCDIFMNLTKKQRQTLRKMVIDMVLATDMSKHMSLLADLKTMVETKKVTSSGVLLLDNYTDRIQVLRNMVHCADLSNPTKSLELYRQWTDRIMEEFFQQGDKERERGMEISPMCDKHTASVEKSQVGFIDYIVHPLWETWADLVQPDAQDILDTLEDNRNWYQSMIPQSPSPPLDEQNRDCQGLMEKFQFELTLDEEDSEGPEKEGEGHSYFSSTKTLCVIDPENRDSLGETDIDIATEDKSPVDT
inhibition at 1 µM ([2]; test concentration 1 μM),inhibition at 10 µM [2],SMILES,also measured
–,–,"CS(=O)(=O)c1cn(-c2ncc(-c3ccc(F)cc3F)cn2)c2cc(C(=O)N3CCOCC3)ccc12 [Example 6, (1-(5-(2,4-Difluorophenyl)pyrimidin-2-yl)-3-(methylsulfonyl)-1H-indol-6-yl)(morpholino)methanone]",inhibition at 1 µM [1]: 88%; melting point: 247 to 252 °C
–,–,"CCc1cccc(-c2cnc(-n3cc([S+](C)[O-])c4ccc(C(=O)N5CCOCC5)cc43)nc2)c1 (stereo not shown) [Example 189, (1-(5-(3-Ethylphenyl)pyrimidin-2-yl)-3-(methylsulfinyl)-1H-indol-6-yl)(morpholino)methanone]",inhibition at 1 µM [1]: 109%; melting point: 162 to 165 °C
–,–,"C[S+]([O-])c1cn(-c2ncc(-c3ccccc3C#N)cn2)c2cc(C(=O)N3CCNCC3)ccc12 (stereo not shown) [Example 16, 2-(2-(3-(Methylsulfinyl)-6-(piperazine-1-carbonyl)-1H-indol-1-yl)pyrimidin-5-yl)benzonitrile]",melting point: 230 to 235 °C
–,–,"C[S+]([O-])c1cn(-c2ncc(-c3ncc(C#N)s3)cn2)c2cc(C(=O)N3CCOCC3)ccc12 (stereo not shown) [Example 207, 2-(2-(3-(Methylsulfinyl)-6-(morpholine-4-carbonyl)-1H-indol-1-yl)pyrimidin-5-yl)thiazole-5-carbonitrile]",melting point: 280 to 283 °C
–,–,"CS(=O)(=O)c1cn(-c2ncc(-c3ccc(F)cc3F)cn2)c2cc(C(=O)N3CCNCC3)ccc12 [Example 23, (1-(5-(2,4-Difluorophenyl)pyrimidin-2-yl)-3-(methylsulfonyl)-1H-indol-6-yl)(piperazin-1-yl)methanone]",melting point: 229 to 233 °C
–,–,"CS(=O)(=O)c1cn(-c2ncc(-c3ccccc3C#N)cn2)c2cc(C(=O)N3CCNCC3)ccc12 [Example 25, 2-(2-(3-(Methylsulfonyl)-6-(piperazine-1-carbonyl)-1H-indol-1-yl)pyrimidin-5-yl)benzonitrile]",melting point: 193 to 197 °C
73%,–,"C[S+]([O-])c1cn(-c2ncc(-c3ccccc3F)cn2)c2cc(C(=O)N3CC4CNCC4C3)ccc12 (stereo not shown) [Example 222, (1-(5-(2-Fluorophenyl)pyrimidin-2-yl)-3-(methylsulfinyl)-1H-indol-6-yl)(hexahydropyrrolo[3,4-c]pyrrol-2(1H)-yl)methanone]",–
89%,–,"CSc1cn(-c2ncc(-c3ccccc3F)cn2)c2cc(C(=O)N3CCOCC3)ccc12 [Example 1d, (1-(5-(2-Fluorophenyl)pyrimidin-2-yl)-3-(methylthio)-1H-indol-6-yl)(morpholino)methanone]",–
–,100%,"CCOc1ccnc(-c2cnc(-n3cc([S+](C)[O-])c4ccc(C(=O)N5CCCC5)cc43)nc2)c1 (stereo not shown) [Example 343, (1-(5-(4-Ethoxypyridin-2-yl)pyrimidin-2-yl)-3-(methylsulfinyl)-1H-indol-6-yl)(pyrrolidin-1-yl)methanone]",–
119%,–,"CCNc1ccnc(-c2cnc(-n3cc([S+](C)[O-])c4ccc(C(=O)N5CCOCC5)cc43)nc2)c1 (stereo not shown) [Example 298, (1-(5-(4-(Ethylamino)pyridin-2-yl)pyrimidin-2-yl)-3-(methylsulfinyl)-1H-indol-6-yl)(morpholino)methanone]",–
–,90%,"CS(=O)(=O)c1cn(-c2ncc(-c3cc(C4CC4)ccn3)cn2)c2cc(C(=O)N3CCOCC3)ccc12 [Example 327, (1-(5-(4-Cyclopropylpyridin-2-yl)pyrimidin-2-yl)-3-(methylsulfonyl)-1H-indol-6-yl)(morpholino)methanone]",–
106%,–,"CCc1ccc(F)c(-c2cnc(-n3cc([S+](C)[O-])c4ccc(C(=O)N5CCOCC5)cc43)nc2)c1 (stereo not shown) [Example 276, (1-(5-(5-Ethyl-2-fluorophenyl)pyrimidin-2-yl)-3-(methylsulfinyl)-1H-indol-6-yl)(morpholino)methanone]",–
97%,–,"COc1ccc(F)c(-c2cnc(-n3cc([S+](C)[O-])c4ccc(C(=O)N(C)CC(N)=O)cc43)nc2)c1 (stereo not shown) [Example 279, N-(2-Amino-2-oxoethyl)-1-(5-(2-fluoro-5-methoxyphenyl)pyrimidin-2-yl)-N-methyl-3-(methylsulfinyl)-1H-indole-6-carboxamide]",–
–,96%,"CC(O)c1ccc(F)c(-c2cnc(-n3cc(S(C)(=O)=O)c4ccc(C(=O)N5CCOCC5)cc43)nc2)c1 (single isomer, unassigned) [Example 344, (1-(5-(2-Fluoro-5-(1-hydroxyethyl)phenyl)pyrimidin-2-yl)-3-(methylsulfonyl)-1H-indol-6-yl)(morpholino)methanone]",–
–,96%,"Cc1ccnc(-c2cnc(-n3cc(C(C)O)c4ccc(C(=O)N5CCOCC5)cc43)nc2)c1 (stereo not shown) [Example 318, (3-(1-Hydroxyethyl)-1-(5-(4-methylpyridin-2-yl)pyrimidin-2-yl)-1H-indol-6-yl)(morpholino)methanone]",–
93%,–,"Cc1ccc(F)c(-c2cnc(-n3cc(S(C)(=O)=O)c4ccc(C(=O)N5CCOCC5)cc43)nc2)c1 [Example 350, (1-(5-(2-Fluoro-5-methylphenyl)pyrimidin-2-yl)-3-(methylsulfonyl)-1H-indol-6-yl)(morpholino)methanone]",–
–,97%,"CS(=O)(=O)c1cn(-c2ncc(-c3ccccc3F)cn2)c2cc(C(=O)N3C[C@@H]4C[C@H]3CO4)ccc12 [Example 309, (1S,4S)-2-Oxa-5-azabicyclo[2.2.1]heptan-5-yl(1-(5-(2-fluorophenyl)pyrimidin-2-yl)-3-(methylsulfonyl)-1H-indol-6-yl)methanone]",–
–,101%,"CN(CC(N)=O)C(=O)c1ccc2c([S+](C)[O-])cn(-c3ncc(-c4cc(N)ccn4)cn3)c2c1 (stereo not shown) [Example 286, N-(2-Amino-2-oxoethyl)-1-(5-(4-aminopyridin-2-yl)pyrimidin-2-yl)-N-methyl-3-(methylsulfinyl)-1H-indole-6-carboxamide]",–
90%,–,"CC(O)c1ccnc(-c2cnc(-n3cc([S+](C)[O-])c4ccc(C(=O)N5CCOCC5)cc43)nc2)c1 (stereo not shown) [Example 291, (1-(5-(4-(1-Hydroxyethyl)pyridin-2-yl)pyrimidin-2-yl)-3-(methylsulfinyl)-1H-indol-6-yl)(morpholino)methanone]",–
–,92%,"CS(=O)(=O)c1cn(-c2ncc(-c3ccccc3F)cn2)c2cc(C(=O)N3C[C@H]4C[C@@H]3CO4)ccc12 [Example 349, (1R,4R)-2-Oxa-5-azabicyclo[2.2.1]heptan-5-yl(1-(5-(2-fluorophenyl)pyrimidin-2-yl)-3-(methylsulfonyl)-1H-indol-6-yl)methanone]",–
–,99%,"C[S+]([O-])c1cn(-c2ncc(-c3cc(N4CCCC4)ccn3)cn2)c2cc(C(=O)N3CCOCC3)ccc12 (stereo not shown) [Example 301, (3-(Methylsulfinyl)-1-(5-(4-(pyrrolidin-1-yl)pyridin-2-yl)pyrimidin-2-yl)-1H-indol-6-yl)(morpholino)methanone]",–
–,98%,"C[S+]([O-])c1cn(-c2ncc(-c3cc(C4(O)CC4)ccn3)cn2)c2cc(C(=O)N3CCOCC3)ccc12 (stereo not shown) [Example 295, (1-(5-(4-(1-Hydroxycyclopropyl)pyridin-2-yl)pyrimidin-2-yl)-3-(methylsulfinyl)-1H-indol-6-yl)(morpholino)methanone]",–
–,100%,"CN(CC(N)=O)C(=O)c1ccc2c([S+](C)[O-])cn(-c3ncc(-c4cc(C5CC5)ccc4F)cn3)c2c1 (single isomer, unassigned) [Example 335, N-(2-Amino-2-oxoethyl)-1-(5-(5-cyclopropyl-2-fluorophenyl)pyrimidin-2-yl)-N-methyl-3-(methylsulfinyl)-1H-indole-6-carboxamide]",–
104%,–,"CN(CC(N)=O)C(=O)c1ccc2c([S+](C)[O-])cn(-c3ncc(-c4cc(N(C)C)ccn4)cn3)c2c1 (stereo not shown) [Example 284, N-(2-Amino-2-oxoethyl)-1-(5-(4-(dimethylamino)pyridin-2-yl)pyrimidin-2-yl)-N-methyl-3-(methylsulfinyl)-1H-indole-6-carboxamide]",–
70%,–,"C[S+]([O-])c1cn(-c2ncc(-c3ccc4c(c3)OCO4)cn2)c2cc(C(=O)N3CCOCC3)ccc12 (stereo not shown) [Example 262, (1-(5-(Benzo[d][1,3]dioxol-5-yl)pyrimidin-2-yl)-3-(methylsulfinyl)-1H-indol-6-yl)(morpholino)methanone]",–
–,143%,"Cc1ccc(F)c(-c2cnc(-n3cc(C(C)O)c4ccc(C(=O)N5CC[C@@H](N)C5)cc43)nc2)c1 (stereo partly drawn) [Example 321, ((R)-3-Aminopyrrolidin-1-yl)(1-(5-(2-fluoro-5-methylphenyl)pyrimidin-2-yl)-3-(1-hydroxyethyl)-1H-indol-6-yl)methanone]",–
–,–,"CC(O)c1ccnc(-c2cnc(-n3cc([S+](C)[O-])c4ccc(C(=O)N5CCOCC5)cc43)nc2)c1 (stereo not shown) [Example 300, (1-(5-(4-(1-Hydroxyethyl)pyridin-2-yl)pyrimidin-2-yl)-3-(methylsulfinyl)-1H-indol-6-yl)(morpholino)methanone]","Inhibition in % (inhibition of PDE4B) ([2]; test concentration 1 μM, 1 µM): 93%"
–,98%,"CCc1ccc(F)c(-c2cnc(-n3cc(S(C)(=O)=O)c4ccc(C(=O)N(C)CC(N)=O)cc43)nc2)c1 [Example 311, N-(2-Amino-2-oxoethyl)-1-(5-(5-ethyl-2-fluorophenyl)pyrimidin-2-yl)-N-methyl-3-(methylsulfonyl)-1H-indole-6-carboxamide]",–
93%,–,"CCc1ccc(F)c(-c2cnc(-n3cc([S+](C)[O-])c4ccc(C(=O)N(C)CC(N)=O)cc43)nc2)c1 (stereo not shown) [Example 280, N-(2-Amino-2-oxoethyl)-1-(5-(5-ethyl-2-fluorophenyl)pyrimidin-2-yl)-N-methyl-3-(methylsulfinyl)-1H-indole-6-carboxamide]",–
